Data: US20120172650A1, “USE OF SO[…] AN ANALOGUE THEREOF IN COMBINATION WITH EXTERNAL RADIATION THERAPY” (priority 2009, published 2012)
Where two headings read alike, the source gives them in different places.

Legend:
GH3 xenograft tumors = assay: Mouse GH3 xenograft tumor model, tumor growth delay; format: in vivo, nude mice
Procedure: Male nude mice, 8 weeks old and 20-25 grams in body weight, were used in this study (Charles River Laboratories, Hollister, Calif.). Prior to experimentation the mice were tested and found to be negative for specific pathogens. The mice were maintained under specific-pathogen-free conditions and allowed to breed. Sterilized food and water were available ad libitum.
Tumors were initiated in the in the right flank of the mice by a subcutaneous injection of 5×10^6 tumor cells suspended in 100 μl of a 1:1 mixture of Hank's solution and Matrigel (BD Biosciences, San Jose, Calif.). Each mouse received one inoculation injection. When the tumors reached an average size of 120 mm^3 (80-200 mm^3), the mice were randomly assigned to different treatment groups with 5-8 mice in each group. Lanreotide was administered to each mouse via subcutaneous injection. […]
Local irradiation of individual tumors was carried out as follows. Unanesthetized tumor-bearing mice were placed in lead boxes, positioned so as to have the tumors protruding through a cut-out window at the rear of each box. The radiation dose was delivered using a Philips RT-250 200 kVp X-ray unit (12.5 mA; Half Value Layer, 1.0-mm Cu) at a dose rate of 138 cGy/min. The tumors were exposed to 150-250 cGy per fraction daily for 5 consecutive days as specified in each experiment.
(§1) Tumor volume was calculated using the formula: tumor volume (mm^3)=π/6×length×width^2. The length and width of the tumors were measured with calipers before treatment and three times a week thereafter, until the tumor volume reached at least 4 times (4×) the pre-treatment volume. The tumor volume quadrupling (4×) time was determined by a best-fit regression analysis. The tumor growth delay (TGD) time (in days) is the difference between the tumor volume quadrupling time of treated tumors compared to the tumor volume quadrupling time of untreated control tumors. Both the tumor volume quadrupling time and tumor growth delay time were calculated for each individual animal and then averaged for each group. In some experiments, a complete response of tumors was recorded if a tumor shrunk to the point that it was not palpable at the end of the experiment. Body weight was measured twice a week.

GH3 cells [1] = format: cell-based, rat; details: for surviving fraction at 10 Gy: 100 nM lanreotide, plus 10 Gy radiation (radiation alone 0.0006); for cell survival rate (colony forming units): 21 days
Description: Currently, there are no human pituitary GH-secreting cell lines that can be maintained in a differentiated state in vitro for sufficient time for colony formation assessment (Danila, D. C. et al., J. Clin. Endocrinol. Metab., 2001, 86:2976-8; Danila, D. C. et al., J. Clin. Endocrinol. Metab., 2000, 85:1180-7). As such, a rat GH3 pituitary tumor cell line was purchased from ATCC. The GH3 cells were maintained in DMED/F-12 medium (Gibco BRL, Grand Island, N.Y.) supplemented with 10% fetal calf serum, 100 units/ml penicillin and 100 μg/ml streptomycin in a 37° C. humidified incubator with a mixture of 95% air and 5% CO2. All experiments were performed on exponentially growing cells with a doubling time of approximately 30 hours.
GH3 cells were detached from the cell culture support using a 0.05% trypsin-EDTA solution. The collected cells were counted, diluted in fresh growth medium and plated in triplicate in 60 mm Petri dishes (BD Biosciences, San Jose, Calif.) at dilutions of approximately 100-100,000 cells/dish. Lanreotide (Biomeasure, Inc., Milford, Mass., USA) was added to the diluted cells at final concentrations of 1-1000 nM. The cells were irradiated with 0-10 Gy at room temperature using a ^137Cs source with a dose rate of 300 cGy/min. Following exposure to lanreotide or gamma irradiation, the media was drained from the dish, the cells were washed twice with PBS (phosphate buffered saline) solution and the plates were filled with fresh growth medium. After incubation at 37° C. for 21 days, the cells were stained with 0.25% crystal violet. Colonies containing ≧50 cells were counted under a dissecting microscope and survival curves were generated. The plating efficiency (PE) was calculated as the percentage of cells plated that grew into colonies. The surviving fraction (SF) was defined as the fraction of cells surviving, i.e. number of colonies/(number of […]×PE).
GH3 cells were plated in 60 mm tissue culture dishes and incubated overnight prior to treatment with the somatostatin agonist analog. Lanreotide was added to the cells to a final concentration of 1-1000 nM. After a 21 day incubation period in the presence of lanreotide the cells were stained and colonies with >50 cells were counted.
GH3 cells were plated in tissue culture dishes and allowed to incubate overnight prior to treatment. At 48, 24 or 0 hours before radiation exposure, lanreotide was added to the cells at a final concentration of 100 nM or 1000 nM. At 48, 24 or 0 hours after the addition of the lanreotide, the GH3 cells were irradiated with 0-10 Gy at room temperature with a Cs-137 gamma irradiator. Following irradiation, cells with 24-hour or 0-hour pre-exposure to lanreotide were incubated in lanreotide-containing media for an additional 24 or 48 hours, respectively. After a total of 48-hour exposure, lanreotide-containing media was removed from the plates, the cells washed twice with PBS solution and fresh growth media added to the cells. Cells that were irradiated without exposure to lanreotide were also washed twice with PBS and supplied with fresh media. The cells were incubated for 21 days for colony formation.

[2] = Tolerability in GH3 tumor-bearing mice (body weight, appearance, activity); format: in vivo, nude mice
Procedure: as §1

GH3 cells [3] = assay: Apoptosis and cell cycle analysis by FACScan flow cytometry (propidium iodide); format: cell-based, rat; details: for apoptotic sub-G1 cells: 48 hours after 10 Gy radiation
Procedure: Apoptosis and cell cycle distribution was analyzed using a FACScan flow cytometer (BD Biosciences, San Jose, Calif.). The level of apoptosis was quantified by measuring the number of sub-diploid (sub-G1) cells. Briefly, GH3 cells were plated in 60 mm dishes at a density of approximately 500,000 cells/dish and treated with lanreotide and gamma irradiation. Approximately 48 to 168 hours after exposure, the cells were collected and washed with cold PBS supplemented with 5 mM EDTA. Cells were re-suspended in cold PBS-EDTA solution and fixed with cold 100% ethanol. After incubation for 30 minutes at room temperature, the cells were centrifuged and the pellet of cells was treated with 100 μg/ml of RNase A in a PBS-EDTA solution for 30 minutes at room temperature. Propidium iodide (PI) was added to a final concentration of 50 μg/ml and the DNA content was analyzed with a FACScan flow cytometer (BD Biosciences, San Jose, Calif.). The percentage of cells in the apoptotic sub-G1, G1, S, and G2/M phases was calculated.
GH3 cells were placed in 60 mm Petri dishes at a concentration of approximately 500,000 cells/dish and allowed to grow overnight. Lanreotide at 100 nM was added at 48 hours, 24 hours or immediately (0 hours) before irradiation. Cells were irradiated with 10 Gy gamma radiation at room temperature and collected 48, 72, 96 and 168 hours after exposure.
The DNA content of the cells was analyzed using a FACScan and the percentages of cells in the apoptotic sub-G1, G1, S and G2/M phases were calculated. […] The percentage of cells in sub-G1, G1, S and G2/M phases at 48 hours was 1.4±0.2%, 73.2±1.0%, 8.4±1.0% and 16.9±1.8%, respectively.

CC(C)[C@@H]1NC(=O)[C@H](CCCCN)NC(=O)[C@@H](Cc2c[nH]c3ccccc23)NC(=O)[C@H](Cc2ccc(O)cc2)NC(=O)[C@@H](NC(=O)[C@H](N)Cc2ccc3ccccc3c2)CSSC[C@@H](C(=O)N[C@H](C(N)=O)[C@@H](C)O)NC1=O [lanreotide, D-2-Nal-Cys-Tyr-D-Trp-Lys-Val-Cys-Thr-NH2]
tumor growth delay time, pre-administration plus radiation (GH3 xenograft tumors; 10 mg/kg lanreotide 5 days, then lanreotide plus 150 cGy daily for 5 days (radiation alone 15.5±8.8 days)): 15.1 ± 8.6 days
once daily vs twice daily dosing in reducing tumor growth (GH3 xenograft tumors; 2.5, 5 or 10 mg/kg s.c. qd or bid for 5 days, p=0.3-0.9): lanreotide delivered once a day was as effective as lanreotide delivered twice daily
tumor growth 4× delay (GH3 xenograft tumors; dose response study, 10 mg/kg s.c. daily for 5 days (optimal dose, bell-shaped curve)): 13.1 ± 4.7 days
complete tumor regression (GH3 xenograft tumors; irradiation and combination therapy groups, study terminated after 60 days): Two mice from the irradiation and combination therapy groups exhibited complete tumor regression
4×TGD (GH3 xenograft tumors; lanreotide alone 10 mg/kg daily for 10 days, p=0.06 vs. control): 8.3 ± 8.3 days
tumor growth 4× delay (GH3 xenograft tumors; regimen comparison, 5 mg/kg twice daily for 5 days): 1.1 ± 3.1 days
tumor growth 4× delay (GH3 xenograft tumors; regimen comparison, 10 mg/kg once daily for 5 days): 4.9 ± 2.1 days
surviving fraction at 10 Gy (GH3 cells [1]; 0 hour pre-exposure): 0.00042
surviving fraction at 10 Gy (GH3 cells [1]; 24 hours pre-exposure): 0.0004
surviving fraction at 10 Gy (GH3 cells [1]; 48 hours pre-exposure): 0.00022
effect on radiation survival curves (GH3 cells [1]; 1000 nM lanreotide for 48 hours with 0-10 Gy radiation): did not alter the shape and slopes of the radiation survival curves
IC50 (GH3 cells [1]; GH3 cells, 21 day incubation in the presence of lanreotide, read-out: IC50 (50% inhibition of cell growth), colony formation): 57 nM
cell survival rate (colony forming units) (GH3 cells [1]; lanreotide 1 nM): 75%
cell survival rate (colony forming units) (GH3 cells [1]; lanreotide 10 nM): 56%
cell survival rate (colony forming units) (GH3 cells [1]; lanreotide 100 nM): 39%
cell survival rate (colony forming units) (GH3 cells [1]; lanreotide 1000 nM): 27%
reduction of clonogenic survival compared with untreated controls (GH3 cells [1]; lanreotide alone 100 nM or 1000 nM for 48 hours, without radiation): 5-10%
signs of systemic toxicity (general appearance, skin reaction, body weight, activity) ([2]; 10 mg/kg for 10 days alone and in combination with 150 cGy external radiation): did not result in any obvious signs of systemic toxicity
animal body weight, combination vs fractionated radiation alone ([2]; 10 mg/kg lanreotide plus 150-250 cGy/fraction for 5 days): did not cause any further decrease in animal body weight
general appearance and daily activity ([2]; 2.5-50 mg/kg daily for 5 days): no notable change
body weight compared to untreated control mice ([2]; 2.5-50 mg/kg daily for 5 days, all doses tested): did not cause significant decrease in body weight
percentage of cells in sub-G1 phase (GH3 cells [3]; 100 nM lanreotide alone (control 1.4±0.2% at 48 hours)): 2.28±0.3%
percentage of cells in S phase (GH3 cells [3]; 100 nM lanreotide alone (control 8.4±1.0%)): 7.72±0.8%
percentage of cells in G2/M phase (GH3 cells [3]; 100 nM lanreotide alone (control 16.9±1.8%)): 16.2±0.5%
percentage of cells in G1 phase (GH3 cells [3]; 100 nM lanreotide alone (control 73.2±1.0%)): 73.8±1.1%
apoptotic sub-G1 cells (GH3 cells [3]; 100 nM lanreotide 0 hours pre-exposure (radiation alone 4.9%)): 13.4%
apoptotic sub-G1 cells (GH3 cells [3]; 100 nM lanreotide 24 hours pre-exposure (radiation alone 4.9%)): 9.3%
apoptotic sub-G1 cells (GH3 cells [3]; 100 nM lanreotide 48 hours pre-exposure (radiation alone 4.9%)): 8.6%
sub-G1 cell fraction (GH3 cells [3]; 168 hours after 10 Gy radiation, radiation plus 100 nM lanreotide (radiation alone 12%)): 20-22%
